What all share (type): functional
In experiment [1] the target is T1, Endoribonuclease toxin MazF (Escherichia coli K-12, UniProt P0AE70).
T1 sequence (P0AE70 whole entry): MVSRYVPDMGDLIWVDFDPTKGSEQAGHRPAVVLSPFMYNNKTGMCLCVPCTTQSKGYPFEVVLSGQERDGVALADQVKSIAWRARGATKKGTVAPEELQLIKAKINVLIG
Kind of experiment: substrate-only fluorescence increase artefacts – biochemical, single-stranded RNase substrate, counter-screen for MazEF activator project, dose response (AID 588502). Background: The purpose of a counterscreen is to sort out artefacts and off-target activity.

The target of experiment [2] is T1, Endoribonuclease toxin MazF. Kind of experiment: activation of MazEF endoribonuclease cleavage – biochemical, fluorescence, single-stranded RNA substrate, uHTS hits, dose response (AID 588481).
For a further experiment, the target named is T2, Caspase-3 (Homo sapiens, UniProt P42574).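 Also: Dose-response selectivity test against caspase-3 for candidate inhibitors of sentrin-specific proteases (SENPs).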
T2 sequence (P42574 whole entry): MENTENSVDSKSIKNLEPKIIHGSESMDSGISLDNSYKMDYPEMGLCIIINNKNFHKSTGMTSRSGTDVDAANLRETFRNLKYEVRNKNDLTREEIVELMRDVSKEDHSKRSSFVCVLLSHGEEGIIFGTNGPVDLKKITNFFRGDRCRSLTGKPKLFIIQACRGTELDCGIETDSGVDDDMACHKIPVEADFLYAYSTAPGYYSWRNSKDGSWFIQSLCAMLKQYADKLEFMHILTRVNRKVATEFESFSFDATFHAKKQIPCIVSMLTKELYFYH

Experiment [3] addresses T3, Sentrin-specific protease 6 (Homo sapiens, UniProt Q9GZR1).
T3 sequence (Q9GZR1 whole entry): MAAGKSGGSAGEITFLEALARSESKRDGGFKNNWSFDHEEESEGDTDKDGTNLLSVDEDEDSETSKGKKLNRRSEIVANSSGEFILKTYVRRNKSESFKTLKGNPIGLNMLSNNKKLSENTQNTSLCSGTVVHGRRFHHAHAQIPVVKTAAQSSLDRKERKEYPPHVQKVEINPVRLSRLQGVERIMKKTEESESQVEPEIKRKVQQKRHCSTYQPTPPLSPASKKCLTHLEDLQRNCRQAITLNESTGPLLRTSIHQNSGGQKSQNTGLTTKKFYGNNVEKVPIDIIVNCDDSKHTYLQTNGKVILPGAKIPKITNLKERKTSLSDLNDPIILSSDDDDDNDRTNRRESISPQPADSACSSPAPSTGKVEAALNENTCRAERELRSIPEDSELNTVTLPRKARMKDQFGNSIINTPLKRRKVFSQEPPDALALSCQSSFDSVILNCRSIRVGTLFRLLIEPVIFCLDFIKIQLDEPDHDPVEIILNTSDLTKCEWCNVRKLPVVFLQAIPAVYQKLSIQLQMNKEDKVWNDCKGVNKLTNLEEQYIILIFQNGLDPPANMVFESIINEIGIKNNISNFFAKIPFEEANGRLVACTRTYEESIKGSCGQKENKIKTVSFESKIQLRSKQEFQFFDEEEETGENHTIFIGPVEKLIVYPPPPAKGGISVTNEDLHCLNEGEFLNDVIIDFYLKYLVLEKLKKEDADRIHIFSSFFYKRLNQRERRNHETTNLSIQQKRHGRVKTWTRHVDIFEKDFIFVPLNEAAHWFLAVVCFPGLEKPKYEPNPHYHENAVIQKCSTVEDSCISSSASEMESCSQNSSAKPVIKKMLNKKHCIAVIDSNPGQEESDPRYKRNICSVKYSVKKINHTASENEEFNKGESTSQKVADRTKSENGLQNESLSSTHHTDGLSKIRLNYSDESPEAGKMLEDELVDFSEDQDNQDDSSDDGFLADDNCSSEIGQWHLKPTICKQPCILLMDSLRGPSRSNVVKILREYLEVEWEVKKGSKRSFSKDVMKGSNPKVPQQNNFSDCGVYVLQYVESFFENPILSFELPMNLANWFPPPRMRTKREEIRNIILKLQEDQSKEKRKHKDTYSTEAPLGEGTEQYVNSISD

In experiment [4] the target is T4, Heat shock factor protein 1 (Mus musculus, UniProt P38532).
T4 sequence (P38532 whole entry): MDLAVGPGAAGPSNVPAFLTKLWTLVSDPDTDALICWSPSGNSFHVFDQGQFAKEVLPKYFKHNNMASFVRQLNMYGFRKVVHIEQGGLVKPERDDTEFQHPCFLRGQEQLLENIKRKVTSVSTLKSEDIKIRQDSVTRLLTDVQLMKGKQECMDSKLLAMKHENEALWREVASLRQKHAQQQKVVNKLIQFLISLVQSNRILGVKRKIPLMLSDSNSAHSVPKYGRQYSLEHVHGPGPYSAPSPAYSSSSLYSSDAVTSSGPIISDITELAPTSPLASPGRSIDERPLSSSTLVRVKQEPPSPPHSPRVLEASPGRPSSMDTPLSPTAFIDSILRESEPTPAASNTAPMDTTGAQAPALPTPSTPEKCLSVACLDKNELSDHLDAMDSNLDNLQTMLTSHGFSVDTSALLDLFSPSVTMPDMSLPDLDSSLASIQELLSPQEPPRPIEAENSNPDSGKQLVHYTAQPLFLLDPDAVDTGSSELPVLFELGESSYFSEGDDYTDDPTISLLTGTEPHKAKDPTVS
Kind of experiment: enhancement of HSF1-driven luciferase signal – cell-based, NIH3T3, luminescence, dose retest, confirmation (AID 435004).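 Also: stress induced by proteasome inhibitor MG132 added 30 min after compound; luciferase reporter driven by HSF1 response element in NIH3T3 cells; actives raise luminescence as potentiators of the MG132 stress response.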

The target in experiment [5] is T5, Sentrin-specific protease 8 (Homo sapiens, UniProt Q96LD8).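 Also: luminescence read-out of SENP8 inhibition, dose-response confirmation following an ultra-high-throughput screen.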
T5 sequence (Q96LD8 whole entry): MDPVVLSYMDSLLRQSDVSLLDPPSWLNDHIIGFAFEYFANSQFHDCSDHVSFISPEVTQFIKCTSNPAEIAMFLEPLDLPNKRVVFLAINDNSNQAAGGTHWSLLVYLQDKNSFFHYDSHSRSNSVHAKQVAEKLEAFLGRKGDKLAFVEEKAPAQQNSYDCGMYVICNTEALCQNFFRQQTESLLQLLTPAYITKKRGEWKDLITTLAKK

Experiment [6] concerns the target T6, Sentrin-specific protease 7 (Homo sapiens, UniProt Q9BQF6).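 Also: Luminescence-based dose-response confirmation of ultra-high-throughput screening hits, measuring inhibition of SENP7.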
T6 sequence (Q9BQF6 whole entry): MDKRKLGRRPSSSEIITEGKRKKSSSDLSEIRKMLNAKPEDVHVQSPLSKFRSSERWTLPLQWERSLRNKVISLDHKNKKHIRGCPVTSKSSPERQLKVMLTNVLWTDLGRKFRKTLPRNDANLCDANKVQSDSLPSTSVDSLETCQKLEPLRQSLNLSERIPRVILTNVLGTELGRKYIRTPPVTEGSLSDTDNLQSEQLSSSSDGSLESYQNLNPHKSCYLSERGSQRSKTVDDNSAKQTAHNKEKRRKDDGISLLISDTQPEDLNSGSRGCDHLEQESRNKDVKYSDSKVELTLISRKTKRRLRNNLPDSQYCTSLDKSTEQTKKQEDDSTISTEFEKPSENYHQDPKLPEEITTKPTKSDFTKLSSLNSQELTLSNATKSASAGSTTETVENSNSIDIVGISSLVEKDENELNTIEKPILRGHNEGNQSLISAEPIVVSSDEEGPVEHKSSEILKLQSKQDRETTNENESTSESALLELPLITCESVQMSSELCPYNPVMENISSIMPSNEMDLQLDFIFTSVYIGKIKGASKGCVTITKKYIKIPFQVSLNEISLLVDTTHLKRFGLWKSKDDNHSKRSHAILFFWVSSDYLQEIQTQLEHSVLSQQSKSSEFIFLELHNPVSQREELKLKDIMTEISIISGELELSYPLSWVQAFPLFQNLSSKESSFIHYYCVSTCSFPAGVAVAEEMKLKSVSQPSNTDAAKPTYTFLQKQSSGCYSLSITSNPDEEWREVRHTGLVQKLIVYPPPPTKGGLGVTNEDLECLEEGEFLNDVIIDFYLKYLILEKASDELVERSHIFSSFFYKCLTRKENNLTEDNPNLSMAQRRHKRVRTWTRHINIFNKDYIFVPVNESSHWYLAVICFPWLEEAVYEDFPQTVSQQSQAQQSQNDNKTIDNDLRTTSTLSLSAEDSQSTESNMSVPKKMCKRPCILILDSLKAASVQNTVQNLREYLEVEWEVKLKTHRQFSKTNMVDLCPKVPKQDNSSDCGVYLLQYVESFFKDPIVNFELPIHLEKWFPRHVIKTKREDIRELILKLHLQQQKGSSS

The target of experiment [7] is T7, Low molecular weight phosphotyrosine protein phosphatase (Homo sapiens, UniProt P24666).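 Also: Dose-response confirmation assay measuring inhibition of LMPTP enzyme activity by fluorescence intensity read-out.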
T7 sequence (P24666 whole entry): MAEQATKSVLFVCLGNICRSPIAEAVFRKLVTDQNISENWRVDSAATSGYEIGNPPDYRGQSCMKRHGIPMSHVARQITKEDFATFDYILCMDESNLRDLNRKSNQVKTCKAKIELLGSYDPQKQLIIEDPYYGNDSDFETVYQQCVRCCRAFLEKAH
To be noted: read-out: IC50_Mean.

Calls of active or inactive are those of the source.

On to `Cc1cccc(C(=O)OCc2cc3ccccc3[nH]c2=O)c1`, for which the EC50 in experiment [1] and in experiment [2] was > 99 µM (inactive) in each case.

In the case of `O=C1CSC(=S)N1N=Cc1c(O)ccc2ccccc12`, the EC50 in experiment [1] and in experiment [2] was > 99 µM (inactive) throughout.

Turning to `CCOC(=O)CSc1nc2ccc(C)cc2cc1C#N`, the EC50 (usually the concentration that produces a half-maximal response) in experiment [1] is > 99 µM (inactive); in experiment [2], 9.32 µM (active).

As to `COCCCn1c(=O)/c(=C\c2ccccc2OC(F)F)s/c1=C(/C#N)C(=O)NCCOC`, the EC50 in experiment [1] and in experiment [2] was > 99 µM (inactive) in each case.

As to `Cc1ccc(C(=O)c2sc3nsc(C)c3c2N)cc1`, the IC50 on Caspase-3 was 28.9 µM (active); in experiment [3], > 100 µM (inactive); in experiment [5], > 100 µM (inactive); in experiment [6], 4.6 µM (active). In addition, the EC50 in experiment [4] was > 260 µM (inconclusive).

For `C=COC(=O)CSc1nc(-c2cccs2)ccc1C#N`, the IC50 on Caspase-3 is 13.3 µM (active); in experiment [3], 6.53 µM (active); in experiment [5] it was 8.96 µM (active); in experiment [6], 16.4 µM (active).

For `CN(C)/C=C/C(=O)c1ccc(OCCN(C)c2ccccn2)cc1`, the IC50 in experiment [7] is 29.9 µM (inactive).

For the molecule `O=C(Nc1cccc(Cl)c1)N1CCc2ccccc2C1`, the IC50 on Caspase-3 is 18.9 µM (active); in experiment [3], 25.5 µM (active); in experiment [5], 26.1 µM (active); in experiment [6], 7.31 µM (active).

For the molecule `CCn1cc(C=C2C(=O)c3ccccc3C2=O)c2ccccc21`, the results for the EC50 in experiment [1] and in experiment [2] were 35.9 µM (inactive) and > 99 µM (inactive), respectively.
